Source: patent publication US20250332265A1, “PSMA TARGETED CONJUGATE COMPOUNDS AND USES THEREOF” (priority 2021, published 2025)
Numbered stars: 1 amine (or outer) side, 2 acyl side, 3 side chain; on linkers, the order of the positions; unused ones are H or OH. Bridge positions count the residues as written; N and C are the ends. Square brackets hold non-standard residues; d marks the D form. Peptide text beside a SMILES is read from it. I, II: the chains in the order shown. * marks the point of attachment. Hexanoyl(6-succinimido-3yl) = O=C1CC([*:1])C(=O)N1CCCCCC(=O)[*:2]; Dolaproine = CO[C@@H]([C@@H]1CCCN1)[C@@H](C)C(=O)O; Dil = CC[C@H](C)[C@H](NC)[C@@H](CC(=O)O)OC; γGlu = O=C(O)[C@H](CCC(=O)[*:2])N[*:1]; PABC = O=C(OCc1ccc(N[*:1])cc1)[*:2]; X1 = C[C@@H](N*)[C@@H](O)c1ccccc1; Trx = NC[C@H]1CC[C@H](C(=O)O)CC1; Cit = NC(=O)NCCC[C@H](N)C(=O)O; NMeV = CN[C@H](C(=O)O)C(C)C; CO = O=C([*:1])[*:2]; Ahx = NCCCCCC(=O)O

Key:
[1] = test system: PSMA-positive PC3pip cells; test: In vitro cytotoxicity assay (CCK-8), PC3pip; assay type: cell-based, human; conditions: 72 hours incubation
Experimental: Cells (1,000/well) were seeded in 96-well culture plates the day before treatment. Cells were incubated with various concentrations of drugs for 72 hours and cell viability evaluated by CCK-8 (Dojindo). The concentration required to reach 50% of cell proliferation was determined (IC50) by GraphPad Prism 3.0.

[2] = test system: α-tubulin in PC3pip and PC3flu cells; test: Immunofluorescence analysis of alpha-tubulin; assay type: cell-based, human; conditions: 5 nM, 24 hours
Experimental: Cells on coverslips at about 70% confluency were incubated with 5 nM of MMAE, PSMA-1-VcMMAE-Cy5.5 or PSMA-1-McMMAE-Cy5.5 for 24 hours. Cells were washed and fixed with 4% paraformaldehyde for 10 minutes, permeabilized with 0.1% Triton™ X-100 for 10 minutes, and blocked with 1% BSA for 1 hour at room temperature. Alpha-tubulin (B5-1-2) Alexa Fluor 488 Mouse Monoclonal Antibody (Invitrogen) was then added at 2 μg/mL in 0.1% BSA and incubated for 3 hours at room temperature. Cells were counterstained with DAPI, mounted with Fluor-Mount aqueous mounting solution, and observed under Leica DM4000B fluorescence microscopy at 40×.

[3] = Maximum tolerated dose (MTD); assay type: in vivo, mice; conditions: single dose i.v., tumor-free athymic nude mice
Description: Mice were monitored daily for 14 days.

[4] = test system: heterotopic PC3pip tumors; test: Heterotopic survival study; assay type: in vivo, mice
Description: Male athymic nude mice were implanted subcutaneously with 1×10^6 of PC3pip cells under the right dorsum of the mice. When tumor size reached approximately 100 mm^3 (tumor volume=Length×width^2/2), mice received drugs through tail vein injection. […] Animals were weighed and tumor size measured every other day for 90 days. Cures were defined as no tumor present at end of the 90-day study. When tumors became too large or animals were moribund they were euthanized. Five mice were used in each group.

PC3pip cells [5] = test: In vitro cytotoxicity by MTT assay, PC3pip; assay type: cell-based, human; conditions: 5 nM, 24 h
Experimental: (§1) In vitro cytotoxicity was measured by MTT assay. Cells (10000 cells/well) were seeded in 96-well plates and incubated for 24 h before adding 5 nM free MMAE, PSMA-MMAE, or PSMA-AuNCs-MMAE. An equivalent amount of PSMA-AuNCs without MMAE was added as a control, and another group of cells pretreated with 50 μM E64 inhibitor for 6 h was also incubated with PSMA-AuNCs-MMAE. After incubation for 1, 4, and 24 h, cells were rinsed with PBS and incubated with 1 mg/mL MTT solution in culture media for 3.5 h. After that media were removed, and 100 μL of DMSO was added. The absorbance was measured 15 min later by a plate reader (Tecan Infinite M200) with absorbance at 570 nm and reference at 620 nm.

PC3flu cells = test: In vitro cytotoxicity by MTT assay, PC3flu; assay type: cell-based, human; conditions: 5 nM, 24 h
Experimental: as §1

[6] = In vitro cytotoxicity by MTT assay, PC3flu; assay type: cell-based, human; conditions: 5 nM, 24 h, read-out: cell killing / drop of viability, PC3flu cells
Experimental: as §1

PC3pip cells [7] = test: In vitro radiotherapy (colony survival); assay type: cell-based, human; conditions: 1 nM MMAE and/or 60 μg Au/mL, 6 h, X-ray 0-6 Gy
Experimental: Both PC3pip and PC3flu cells (1×10^5 cells/well) were cultured in 6-well plates for 24 h, and then PSMA-AuNC-MMAE and PSMA-MMAE were added at an equivalent MMAE concentration of 1 nM. Additionally, PSMA-AuNCs without MMAE was added at 60 μg Au/mL. Another group with the addition of a mixture of PSMA-AuNCs and PSMA-AuNC-MMAE at the equivalent dose of Au and MMAE was also evaluated. Mixing was performed so as to keep Au concentrations equivalent. This could not be achieved by adding more PSMA-AuNC-MMAE as this would result in toxic levels of MMAE. Cells without any treatment were used as blank control. Following incubation for 6 h, the media were removed, and cells were rinsed by PBS before exposing to X-ray radiation at doses of 0, 2, 4, and 6 Gy. Next, cells were trypsinized, counted, and reseeded in 6-well plate for colonies to grow. After 2 weeks, all the wells were rinsed with PBS, fixed with 4% paraformaldehyde, and stained by 0.4% crystal violet. The number of colonies from each well was counted to calculate the survive fraction.

PC3pip tumor = test: In vivo chemoradiotherapy; set-up: species or system mice
Experimental: Male athymic nude mice were subcutaneously implanted with the PC3pip tumor, and when the tumor size reached about 100 mm^3 (tumor volume=length×width^2/2), the mice were divided into ten groups randomly. Each group was intravenously injected with PBS, PSMA-AuNCs, PSMA-AuNCs-MMAE, PSMA-MMAE, or a mixture of PSMA-AuNCs and PSMA-MMAE at MMAE dose of 400 nmol/kg and an equivalent dose of Au. At 4 h postinjection, five of the groups were irradiated with X-rays (6 Gy, Cs-137 with energy of 0.6616 MeV) focusing on the tumor region, and the other five groups received the same injections but no radiation and were used as controls. Each group contained five mice. All the treatments were given only once, and then the mice were monitored for tumor size and body weight every other day for one month. The coefficient of drug interaction (CDI) is calculated as follows: CDI=C/(A×B),^44 where C is the tumor volume ratio of PSMA-AuNCs-MMAE+RT group to control group, A is the tumor volume ratio of PSMA-AuNCs+RT group to control group, and B is the tumor volume ratio of PSMA-MMAE+RT group to control group; PBS+RT group is the control. […] When the tumors became too large or an animal was moribund, they were euthanized. At the end of monitoring, all mice were euthanized and tumors were isolated and weighed.

Compound | selectivity, differential cytotoxicity between PC3pip and PC3flu cells [1] | disruption of α-tubulin network [2] | maximum tolerated dose (MTD) [3] | time by which all mice died ([4]; 160 nmol/kg) | antitumor activity (tumor growth), words ([4]; 160 nmol/kg i.v. every four days, 5 doses) | cell killing, PC3pip cells (PC3pip cells [5]) | cell killing / drop of viability, PC3flu cells (PC3flu cells) | cytotoxicity [6] | radiosensitization (colony survival rate) of PC3pip cells (PC3pip cells [7]) | tumor volume increase (PC3pip tumor; 6 Gy radiation, day 30, MMAE 400 nmol/kg) | tumor volume increase (PC3pip tumor; no radiation, end of observation, MMAE 400 nmol/kg)
CC[C@H](C)[C@@H]([C@@H](CC(=O)N1CCC[C@H]1[C@H](OC)[C@@H](C)C(=O)N[C@H](C)[C@@H](O)c1ccccc1)OC)N(C)C(=O)[C@@H](NC(=O)[C@@H](NC)C(C)C)C(C)C [MMAE, monomethyl auristatin E, reference compound] (H-[NMeV]V[Dil][Dolaproine]-X1) | no selectivity | non-selective tubulin disruption | 700 nmol/kg | ≤ 36 days | relatively ineffective at inhibiting tumor growth | over 70% | over 70% | – | – | – | –
CC[C@H](C)[C@@H]([C@@H](CC(=O)N1CCC[C@H]1[C@H](OC)[C@@H](C)C(=O)N[C@H](C)[C@@H](O)c1ccccc1)OC)N(C)C(=O)[C@@H](NC(=O)[C@H](C(C)C)N(C)C(=O)OCc1ccc(NC(=O)[C@H](CCCNC(N)=O)NC(=O)[C@@H](NC(=O)CCCCCN2C(=O)CC(SC[C@H](NC(=O)[C@H](Cc3ccc(O)cc3)NC(=O)[C@H](CCCCN)NC(=O)[C@H](CCC(=O)O)NC(=O)[C@H](CCC(=O)O)NC(=O)[C@H](CCC(=O)O)NC(=O)CCCCCNC(=O)[C@H]3CC[C@H](CNC(=O)CC[C@H](NC(=O)N[C@@H](CCC(=O)O)C(=O)O)C(=O)O)CC3)C(N)=O)C2=O)C(C)C)cc1)C(C)C (stereo partly drawn) [PSMA-MMAE] (I: {Glu-CO-γGlu-Trx-Ahx}-EEEKYC-NH2 / II: V[Cit][PABC][NMeV]V[Dil][Dolaproine]-X1; linker I:6-II:N via Hexanoyl(6-succinimido-3yl); C-terminus assumed) | – | – | – | – | – | 58% | – | 18% | notably lower survival rate | 55% | 163%
